Test results as given in patent US10927389B2, “Method of producing chemical substance by continuous fermentation” (Toray Industries, Inc., priority 2014, dated 2021).

Key:
[1] = tested on: Arxula adeninivorans NBRC 10858 strain; assay: Acetone resistance test; type: cell-based; conditions: strain NBRC 10858; 4% (v/v) acetone in YPAD medium, 30° C., 40 hours; absorbance at 600 nm with acetone ÷ without ×100
Experimental: (§1) To 5 ml of YPAD medium, 200 μL of acetone was added so that the final concentration became 4% (v/v). […] Absorbance at 600 nm of YPAD medium (with acetone)÷absorbance at 600 nm of YPAD medium×100 (7)

[2] = tested on: Candida boidinii BCRC 22528 strain; assay: Acetone resistance test; type: cell-based; conditions: strain BCRC 22528; 4% (v/v) acetone in YPAD medium, 30° C., 40 hours; absorbance at 600 nm with acetone ÷ without ×100
Experimental: as §1

[3] = tested on: Candida methanosorbosa BCRC 21489 strain; assay: Acetone resistance test; type: cell-based; conditions: strain BCRC 21489; 4% (v/v) acetone in YPAD medium, 30° C., 40 hours; absorbance at 600 nm with acetone ÷ without ×100
Experimental: as §1

[4] = tested on: Candida pignaliae NBRC 10307 strain; assay: Acetone resistance test; type: cell-based; conditions: strain NBRC 10307; 4% (v/v) acetone in YPAD medium, 30° C., 40 hours; absorbance at 600 nm with acetone ÷ without ×100
Experimental: as §1

[5] = tested on: Candida tropicalis NBRC 199 strain; assay: Acetone resistance test; type: cell-based; conditions: strain NBRC 199; 4% (v/v) acetone in YPAD medium, 30° C., 40 hours; absorbance at 600 nm with acetone ÷ without ×100
Experimental: as §1

[6] = tested on: Kluyveromyces marxianus NBRC 272 strain; assay: Acetone resistance test; type: cell-based; conditions: strain NBRC 272; 4% (v/v) acetone in YPAD medium, 30° C., 40 hours; absorbance at 600 nm with acetone ÷ without ×100
Experimental: as §1

[7] = tested on: Lindnera fabianii NBRC 1253 strain; assay: Acetone resistance test; type: cell-based; conditions: strain NBRC 1253; 4% (v/v) acetone in YPAD medium, 30° C., 40 hours; absorbance at 600 nm with acetone ÷ without ×100
Experimental: as §1

[8] = tested on: Pichia stipitis BCRC 21777 strain; assay: Acetone resistance test; type: cell-based; conditions: strain BCRC 21777; 4% (v/v) acetone in YPAD medium, 30° C., 40 hours; absorbance at 600 nm with acetone ÷ without ×100
Experimental: as §1

[9] = tested on: Saccharomyces cerevisiae NBRC 10505 strain; assay: Acetone resistance test; type: cell-based; conditions: strain NBRC 10505; 4% (v/v) acetone in YPAD medium, 30° C., 40 hours; absorbance at 600 nm with acetone ÷ without ×100
Experimental: as §1

[10] = tested on: Saccharomyces cerevisiae NBRC 10505/ΔPDC1::LDH strain; assay: Acetone resistance test; type: cell-based; conditions: strain NBRC 10505 ΔPDC1::LDH; 4% (v/v) acetone in YPAD medium, 30° C., 40 hours; absorbance at 600 nm with acetone ÷ without ×100
Experimental: as §1

[11] = tested on: Saccharomyces cerevisiae NBRC 2260 strain; assay: Acetone resistance test; type: cell-based; conditions: strain NBRC 2260; 4% (v/v) acetone in YPAD medium, 30° C., 40 hours; absorbance at 600 nm with acetone ÷ without ×100
Experimental: as §1

[12] = tested on: Saccharomyces cerevisiae NBRC 2260/ΔPDC1::LDH strain; assay: Acetone resistance test; type: cell-based; conditions: strain NBRC 2260 ΔPDC1::LDH; 4% (v/v) acetone in YPAD medium, 30° C., 40 hours; absorbance at 600 nm with acetone ÷ without ×100
Experimental: as §1

[13] = tested on: Saccharomyces cerevisiae NITE BP-1087 strain; assay: Acetone resistance test; type: cell-based; conditions: strain BP-1087; 4% (v/v) acetone in YPAD medium, 30° C., 40 hours; absorbance at 600 nm with acetone ÷ without ×100
Experimental: as §1

[14] = tested on: Saccharomyces cerevisiae NITE BP-1088 strain; assay: Acetone resistance test; type: cell-based; conditions: strain BP-1088; 4% (v/v) acetone in YPAD medium, 30° C., 40 hours; absorbance at 600 nm with acetone ÷ without ×100
Experimental: as §1

[15] = tested on: Saccharomyces cerevisiae NITE BP-1089 strain; assay: Acetone resistance test; type: cell-based; conditions: strain BP-1089; 4% (v/v) acetone in YPAD medium, 30° C., 40 hours; absorbance at 600 nm with acetone ÷ without ×100
Experimental: as §1

[16] = tested on: Pichia mexicana NBRC 10320 strain; assay: Acetone resistance test; type: cell-based; conditions: strain NBRC 10320; 4% (v/v) acetone in YPAD medium, 30° C., 40 hours; absorbance at 600 nm with acetone ÷ without ×100
Experimental: as §1
As a result, the Pichia mexicana NBRC 10320 strain was found not to be a vanillin-resistant yeast, but found to be an acetone-resistant yeast.

[17] = tested on: Saccharomyces cerevisiae NBRC 10505 strain; assay: Vanillin resistance test; type: cell-based; conditions: strain NBRC 10505; vanillin 1 g/L in YPAD medium, 30° C., 40 hours; absorbance at 600 nm with vanillin ÷ without ×100
Experimental: (§2) The Saccharomyces cerevisiae NBRC 10505 strain was inoculated using a platinum loop to 20-ml test tubes each containing 5 ml of YPAD medium, and then cultured with shaking at 30° C. overnight (preculture). The YPAD medium had the following composition: 1% (w/v) yeast extract, 2% (w/v) bactopeptone, 2% (w/v) glucose, and 0.04% (w/v) adenine. A vanillin concentrate (200 g/L in DMSO) was prepared, and 25 μL of the vanillin concentrate was added to 5 ml of YPAD medium so that the final concentration became 1 g/L. To provide vanillin-free YPAD medium, 25 μl of DMSO alone was added to YPAD medium. The preculture liquid was inoculated to the YPAD medium (with vanillin) and the vanillin-free YPAD medium such that OD became 0.2, and culture was performed at 30° C. for 40 hours. After the culture, OD 600 nm of the culture liquid of each strain was measured, and a value was calculated according to Equation (6). Absorbance at 600 nm of YPAD medium (with vanillin)÷absorbance at 600 nm of YPAD medium×100 (6).

[18] = tested on: Candida pignaliae NBRC 10307 strain; assay: Vanillin resistance test; type: cell-based; conditions: strain NBRC 10307; vanillin 1 g/L in YPAD medium, 30° C., 40 hours; absorbance at 600 nm with vanillin ÷ without ×100
Experimental: (§3) The YPAD medium had the following composition: 1% (w/v) yeast extract, 2% (w/v) bactopeptone, 2% (w/v) glucose, and 0.04% (w/v) adenine. A vanillin concentrate (200 g/L in DMSO) was prepared, and 25 μL of the vanillin concentrate was added to 5 ml of YPAD medium so that the final concentration became 1 g/L. To provide vanillin-free YPAD medium, 25 μl of DMSO alone was added to YPAD medium. The preculture liquid was inoculated to the YPAD medium (with vanillin) and the vanillin-free YPAD medium such that OD became 0.2, and culture was performed at 30° C. for 40 hours. After the culture, OD 600 nm of the culture liquid of each strain was measured, and a value was calculated according to Equation (6). Absorbance at 600 nm of YPAD medium (with vanillin)÷absorbance at 600 nm of YPAD medium×100 (6).

[19] = tested on: Pichia mexicana NBRC 10320 strain; assay: Vanillin resistance test; type: cell-based; conditions: strain NBRC 10320; vanillin 1 g/L in YPAD medium, 30° C., 40 hours; absorbance at 600 nm with vanillin ÷ without ×100
Experimental: The Pichia mexicana NBRC 10320 strain was tested by the same method as in Reference Example 5, and values were calculated according to Equation (6) and Equation (7) (Table 1).

[20] = tested on: Saccharomyces cerevisiae NBRC 2260 strain; assay: Vanillin resistance test; type: cell-based; conditions: strain NBRC 2260; vanillin 1 g/L in YPAD medium, 30° C., 40 hours; absorbance at 600 nm with vanillin ÷ without ×100
Experimental: as §2

[21] = tested on: Kluyveromyces marxianus NBRC 272 strain; assay: Vanillin resistance test; type: cell-based; conditions: strain NBRC 272; vanillin 1 g/L in YPAD medium, 30° C., 40 hours; absorbance at 600 nm with vanillin ÷ without ×100
Experimental: as §3
The Kluyveromyces marxianus NBRC 272 strain was tested by the same method as in Reference Example 5, and values were calculated according to Equation (6) and Equation (7) (Table 1).

[22] = tested on: Candida tropicalis NBRC 199 strain; assay: Vanillin resistance test; type: cell-based; conditions: strain NBRC 199; vanillin 1 g/L in YPAD medium, 30° C., 40 hours; absorbance at 600 nm with vanillin ÷ without ×100
[23] = tested on: Arxula adeninivorans NBRC 10858 strain; assay: Vanillin resistance test; type: cell-based; conditions: strain NBRC 10858; vanillin 1 g/L in YPAD medium, 30° C., 40 hours; absorbance at 600 nm with vanillin ÷ without ×100
Experimental: as §2
The Arxula adeninivorans NBRC 10858 strain was tested by the same method as in Reference Example 5, and values were calculated according to Equation (6) and Equation (7) (Table 1).

[24] = tested on: Lindnera fabianii NBRC 1253 strain; assay: Vanillin resistance test; type: cell-based; conditions: strain NBRC 1253; vanillin 1 g/L in YPAD medium, 30° C., 40 hours; absorbance at 600 nm with vanillin ÷ without ×100
Experimental: The Lindnera fabianii NBRC 1253 strain was tested by the same method as in Reference Example 5, and a value was calculated according to Equation (6) and Equation (7) (Table 1).

[25] = tested on: Candida methanosorbosa BCRC 21489 strain; assay: Vanillin resistance test; type: cell-based; conditions: strain BCRC 21489; vanillin 1 g/L in YPAD medium, 30° C., 40 hours; absorbance at 600 nm with vanillin ÷ without ×100
Experimental: The Candida methanosorbosa BCRC 21489 strain was tested by the same method as in Reference Example 5, and values were calculated according to Equation (6) and Equation (7) (Table 1).

[26] = tested on: Pichia stipitis BCRC 21777 strain; assay: Vanillin resistance test; type: cell-based; conditions: strain BCRC 21777; vanillin 1 g/L in YPAD medium, 30° C., 40 hours; absorbance at 600 nm with vanillin ÷ without ×100
Experimental: as §3
The Pichia stipitis BCRC 21777 strain was tested by the same method as in Reference Example 5, and values were calculated according to Equation (6) and Equation (7) (Table 1).

[27] = tested on: Candida boidinii BCRC 22528 strain; assay: Vanillin resistance test; type: cell-based; conditions: strain BCRC 22528; vanillin 1 g/L in YPAD medium, 30° C., 40 hours; absorbance at 600 nm with vanillin ÷ without ×100
Experimental: The Candida boidinii BCRC 22528 strain was tested by the same method as in Reference Example 5, and values were calculated according to Equation (6) and Equation (7) (Table 1).

[28] = tested on: Saccharomyces cerevisiae NITE BP-1087 strain; assay: Vanillin resistance test; type: cell-based; conditions: strain BP-1087; vanillin 1 g/L in YPAD medium, 30° C., 40 hours; absorbance at 600 nm with vanillin ÷ without ×100
Experimental: as §2

[29] = tested on: Saccharomyces cerevisiae NITE BP-1088 strain; assay: Vanillin resistance test; type: cell-based; conditions: strain BP-1088; vanillin 1 g/L in YPAD medium, 30° C., 40 hours; absorbance at 600 nm with vanillin ÷ without ×100
Experimental: as §2

[30] = tested on: Saccharomyces cerevisiae NITE BP-1089 strain; assay: Vanillin resistance test; type: cell-based; conditions: strain BP-1089; vanillin 1 g/L in YPAD medium, 30° C., 40 hours; absorbance at 600 nm with vanillin ÷ without ×100
Experimental: as §2

[31] = tested on: Saccharomyces cerevisiae NBRC 10505/ΔPDC1::LDH strain; conditions: strain NBRC 10505 ΔPDC1::LDH; vanillin 1 g/L in YPAD medium, 30° C., 40 hours; absorbance at 600 nm with vanillin ÷ without ×100
Experimental: as §2

[32] = tested on: Saccharomyces cerevisiae NBRC 2260/ΔPDC1::LDH strain; conditions: strain NBRC 2260 ΔPDC1::LDH; vanillin 1 g/L in YPAD medium, 30° C., 40 hours; absorbance at 600 nm with vanillin ÷ without ×100
Experimental: as §2

CC(C)=O [Acetone, acetone]
Acetone resistance test result [1]: 22 | Acetone resistance test result [2]: 49 | Acetone resistance test result [3]: 74 | Acetone resistance test result [4]: 1.3 | Acetone resistance test result [5]: 100 | Acetone resistance test result [6]: 87 | Acetone resistance test result [7]: 111 | Acetone resistance test result [8]: 1.8 | Acetone resistance test result [9]: 8.8 | Acetone resistance test result [10]: 8 | Acetone resistance test result [11]: 86 | Acetone resistance test result [12]: 84 | Acetone resistance test result [13]: 10 | Acetone resistance test result [14]: 7.5 | Acetone resistance test result [15]: 7.2 | Acetone resistance test result [16]: 100

COc1cc(C=O)ccc1O [Vanillin, vanillin]
Vanillin resistance test result [17]: 6.8 | Vanillin resistance test result [18]: 1.9 | Vanillin resistance test result [19]: 11 | Vanillin resistance test result [20]: 83 | Vanillin resistance test result [21]: 100 | Vanillin resistance test result [22]: 82 | Vanillin resistance test result [23]: 84 | Vanillin resistance test result [24]: 95 | Vanillin resistance test result [25]: 54 | Vanillin resistance test result [26]: 22 | Vanillin resistance test result [27]: 66 | Vanillin resistance test result [28]: 9.2 | Vanillin resistance test result [29]: 8.5 | Vanillin resistance test result [30]: 7.8 | Vanillin resistance test result [31]: 6.2 | Vanillin resistance test result [32]: 82
